Legend:
[1] = molecular target: T1, PAFR (receptor for platelet-activating factor) (Homo sapiens, UniProt P25105); experiment: agonist-induced superoxide release (isoluminol chemiluminescence) in human neutrophils, abolished by PAFR antagonist WEB2086; Ca2+ mobilization EC50 […]; type: cell-based
T1 construct: gene PTAFR

[2] = molecular target: T1, PAFR (receptor for platelet-activating factor); experiment: antagonism of PAF ([…])-induced superoxide release in human neutrophils; type: cell-based

T1 sequence (P25105 whole entry): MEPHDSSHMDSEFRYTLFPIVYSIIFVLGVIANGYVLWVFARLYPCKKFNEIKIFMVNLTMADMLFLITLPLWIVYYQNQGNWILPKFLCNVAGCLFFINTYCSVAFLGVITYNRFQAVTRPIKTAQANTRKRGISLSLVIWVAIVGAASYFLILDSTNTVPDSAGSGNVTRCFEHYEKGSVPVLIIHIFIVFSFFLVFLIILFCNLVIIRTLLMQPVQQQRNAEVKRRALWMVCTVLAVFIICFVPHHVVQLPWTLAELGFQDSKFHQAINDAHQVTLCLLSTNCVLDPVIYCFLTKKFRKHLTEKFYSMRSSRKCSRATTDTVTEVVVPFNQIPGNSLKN

Row | SMILES | EC50 [1] | antagonism of PAF (100 nM)-induced superoxide release in human neutrophils [2]
1 | CCCCCCCCCCCCCCCCOC[C@H](COP(=O)([O-])OCC[N+](C)(C)C)OC(C)=O [PAF] | ~800 nM | 
2 | Cc1nnc2n1-c1sc(CCC(=O)N3CCOCC3)cc1C(c1ccccc1Cl)=NC2 [WEB2086] |  | a specific PAFR antagonist (WEB2086) completely and selectively abolished the release of ROS upon PAF stimulation

Reference: paper PMC3773398, “The Subcellular Localization of the Receptor for Platelet-Activating Factor in Neutrophils Affects Signaling and Activation Characteristics” (Clinical and Developmental Immunology, 2013)
